Results on six compounds are retold here after article PMC2760403 (The Journal of organic chemistry, 2009).

Common to all, as to format: biochemical
For assay [1], the target named is M. tuberculosis Riboflavin Synthase (Mycobacterium tuberculosis, UniProt P9WK35). The assay is described as follows: Riboflavin synthase kinetic inhibition assay. Particulars: recombinant M. tuberculosis RS; for kcat (rate constant ES → E + P): fit of the compound's data set; for kcat (rate constant ES → E + P) / Kis (inhibitor dissociation constant, ES + I ⇌ ESI): pH 7.0.
Chain of M. tuberculosis Riboflavin Synthase (P9WK35 whole entry): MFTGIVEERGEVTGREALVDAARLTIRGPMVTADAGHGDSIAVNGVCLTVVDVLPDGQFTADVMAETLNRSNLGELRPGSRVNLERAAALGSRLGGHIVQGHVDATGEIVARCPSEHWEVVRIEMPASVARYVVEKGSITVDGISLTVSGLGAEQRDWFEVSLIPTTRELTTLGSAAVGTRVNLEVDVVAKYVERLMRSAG

For assay [2], the target named is M. tuberculosis Lumazine Synthase (Mycobacterium tuberculosis, UniProt P9WHE9). Particulars: recombinant M. tuberculosis LS; for kcat (rate constant ES → E + P): fit of the compound's data set; for kcat (rate constant ES → E + P) / Kis (inhibitor dissociation constant, ES + I ⇌ ESI): pH 7.0; for Kis (inhibitor dissociation constant, ES + I ⇌ ESI): substrate 1 varied, 2 constant.
Chain of M. tuberculosis Lumazine Synthase (P9WHE9 whole entry): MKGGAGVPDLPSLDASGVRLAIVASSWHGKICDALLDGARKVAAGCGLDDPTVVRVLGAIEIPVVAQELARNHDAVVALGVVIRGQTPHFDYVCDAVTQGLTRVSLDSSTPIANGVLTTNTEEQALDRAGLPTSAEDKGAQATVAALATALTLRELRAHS

In assay [3] the target is T1, S. pombe Lumazine Synthase (Schizosaccharomyces pombe, UniProt Q9UUB1).
T1 sequence (Q9UUB1 1-159): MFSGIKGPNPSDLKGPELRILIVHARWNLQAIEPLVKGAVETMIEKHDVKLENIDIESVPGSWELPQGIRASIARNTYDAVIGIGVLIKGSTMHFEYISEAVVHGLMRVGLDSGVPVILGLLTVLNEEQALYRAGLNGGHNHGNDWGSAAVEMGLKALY
The assay is described as follows: Lumazine synthase kinetic inhibition assay. To be noted: recombinant S. pombe LS; for kcat (rate constant ES → E + P): fit of the compound's data set.

The target of assay [4] is E. coli Riboflavin Synthase (Escherichia coli, UniProt P0AFU8). Briefly: Riboflavin synthase kinetic inhibition assay. Particulars: recombinant E. coli RS.
Chain of E. coli Riboflavin Synthase (P0AFU8 whole entry): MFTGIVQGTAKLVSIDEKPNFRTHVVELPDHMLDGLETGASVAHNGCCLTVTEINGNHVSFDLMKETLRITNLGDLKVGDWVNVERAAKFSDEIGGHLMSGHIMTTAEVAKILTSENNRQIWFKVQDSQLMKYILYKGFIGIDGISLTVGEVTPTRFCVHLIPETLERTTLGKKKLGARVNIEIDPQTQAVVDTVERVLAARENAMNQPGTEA

As to `O=c1[nH]c(CCc2ccc(O)cc2)c([N+](=O)[O-])c(=O)[nH]1` [Compound 48, 6-(4-Hydroxy-2-phenethyl)-5-nitropyrimidine-2,4(1H,3H)-dione], in assay [1], the Mode of inhibition entry is reported as “Uncompetitive”; the “kcat (rate constant ES → E + P)” value was determined as 0.00567 ± 0.00017 s⁻¹; the “Kis (inhibitor dissociation constant, ES + I ⇌ ESI)” value is 449 ± 45 µM.
Consider `O=c1[nH]c(/C=C/c2cc([N+](=O)[O-])ccc2O)c([N+](=O)[O-])c(=O)[nH]1` [Compound 32, (E)-6-(2-Hydroxy-5-nitrostyryl)-5-nitropyrimidine-2,4(1H,3H)-dione], for which, in assay [2], the Mode of inhibition entry was “Competitive” and the “kcat (rate constant ES → E + P)” value is 0.0107 ± 0.0005 s⁻¹. In assay [1], the Mode of inhibition result is given as “Uncompetitive”; the “kcat (rate constant ES → E + P)” value is 0.00783 ± 0.00017 s⁻¹; the “Kis (inhibitor dissociation constant, ES + I ⇌ ESI)” value amounted to 800 ± 107 µM.
Turning to `O=c1[nH]c(/C=C/c2ccccc2O)c([N+](=O)[O-])c(=O)[nH]1` [Compound 9, (E)-5-Nitro-6-(2-hydroxystyryl)pyrimidine-2,4(1H,3H)-dione], the Mode of inhibition result in assay [3] is reported as “Competitive”; in assay [2], “Competitive”; in assay [1] it was “Uncompetitive”. For the same compound, the “kcat (rate constant ES → E + P)” value was found to be 0.023 ± 0.0005 s⁻¹ in assay [3] (pH 7.0), 0.00433 ± 0.00017 s⁻¹ in assay [2] and 0.0683 ± 0.0033 s⁻¹ in assay [1]. The “Kis (inhibitor dissociation constant, ES + I ⇌ ESI)” value in assay [1] stood at 917 ± 212 µM.
For `O=c1[nH]c(/C=C/c2ccc(F)cc2)c([N+](=O)[O-])c(=O)[nH]1` [Compound 29, (E)-6-(4-Fluorostyryl)-5-nitropyrimidine-2,4(1H,3H)-dione], in assay [2], the Mode of inhibition entry is recorded as “Mixed”; the “kcat (rate constant ES → E + P)” value worked out at 0.0065 ± 0.00033 s⁻¹; the “Kis (inhibitor dissociation constant, ES + I ⇌ ESI)” value was determined as 25 ± 8 µM. Besides, in assay [1], the Mode of inhibition entry was “Mixed”; the “kcat (rate constant ES → E + P)” value came to 0.00667 ± 0.00017 s⁻¹; the “Kis (inhibitor dissociation constant, ES + I ⇌ ESI)” value is 776 ± 294 µM.
As to `O=c1[nH]c(/C=C/c2ccc([N+](=O)[O-])c(O)c2)c([N+](=O)[O-])c(=O)[nH]1` [Compound 35, (E)-6-(3-Hydroxy-4-nitrostyryl)-5-nitropyrimidine-2,4(1H,3H)-dione], the Mode of inhibition result in assay [3] was “Mixed”; in assay [2], “Competitive”; in assay [4], “Uncompetitive”. Also, the “kcat (rate constant ES → E + P)” value in assay [3] (pH 7.0) turned out to be 0.0188 ± 0.00017 s⁻¹; in assay [2], 0.00633 ± 0.00017 s⁻¹; in assay [4] (fit of the compound's data set, pH 7.0), 0.0717 ± 0.0017 s⁻¹. For the same compound, the “Kis (inhibitor dissociation constant, ES + I ⇌ ESI)” value in assay [3] (substrate 1 varied, 2 constant, pH 7.0) was 497 ± 159 µM; in assay [4] (pH 7.0), 224 ± 22 µM.
`O=c1[nH]c(/C=C/c2ccc(O)cc2)c([N+](=O)[O-])c(=O)[nH]1` [Compound 16, (E)-6-(4-Hydroxystyryl)-5-nitropyrimidine-2,4(1H,3H)-dione]: in assay [3], the “Inhibitory activity in words” value is “completely ineffective”. In assay [2], the Mode of inhibition entry was “Partial”; the “kcat (rate constant ES → E + P)” value turned out to be 0.00717 ± 0.00017 s⁻¹; the “Kis (inhibitor dissociation constant, ES + I ⇌ ESI)” value amounted to 17 ± 5 µM. In addition, the “Inhibitory activity in words” value in assay [4] was “completely ineffective”.
